The values below come from patent US6423689B1, “Peptidyl calcium channel blockers” (Warner-Lambert Company, priority 1997, dated 2002).

In series [1] the target is T1, N-type Ca2+ channels in IMR-32 cells (Homo sapiens, UniProt Q00975).
T1 construct: host or cells: IMR-32 cells, differentiated with dibutyryl cAMP and bromodeoxyuridine
Nature of the series: Inhibition of N-type calcium flux in IMR-32 cells (Indo-1 fluorescence, nitrendipine present). As to conditions: for IC50: IMR-32 cells, 5 μM nitrendipine, K+ depolarization; for inhibition at 1 µM / inhibition at 10 µM: IMR-32. It counts as cell-based. A digest of the protocol: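 With L-type flux blocked by 5 μM nitrendipine, N-type Ca2+ entry was read as the Indo-1 emission ratio (400/490 nm, excitation 350 nm) at 30° C after KCl depolarization.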
In general terms: A change in cytosolic calcium serves as a functional read-out for many receptors and channels.

The target of series [2] is T2, L-type Ca2+ channels in A10 cells (Rattus norvegicus, UniProt P22002).
T2 construct: which endogenously expresses L-type calcium channels; host or cells: A10 rat aortic smooth muscle cells
Briefly: Inhibition of L-type calcium flux in A10 cells (FLIPR). The series is classed as cell-based.

T1 sequence (Q00975 whole entry): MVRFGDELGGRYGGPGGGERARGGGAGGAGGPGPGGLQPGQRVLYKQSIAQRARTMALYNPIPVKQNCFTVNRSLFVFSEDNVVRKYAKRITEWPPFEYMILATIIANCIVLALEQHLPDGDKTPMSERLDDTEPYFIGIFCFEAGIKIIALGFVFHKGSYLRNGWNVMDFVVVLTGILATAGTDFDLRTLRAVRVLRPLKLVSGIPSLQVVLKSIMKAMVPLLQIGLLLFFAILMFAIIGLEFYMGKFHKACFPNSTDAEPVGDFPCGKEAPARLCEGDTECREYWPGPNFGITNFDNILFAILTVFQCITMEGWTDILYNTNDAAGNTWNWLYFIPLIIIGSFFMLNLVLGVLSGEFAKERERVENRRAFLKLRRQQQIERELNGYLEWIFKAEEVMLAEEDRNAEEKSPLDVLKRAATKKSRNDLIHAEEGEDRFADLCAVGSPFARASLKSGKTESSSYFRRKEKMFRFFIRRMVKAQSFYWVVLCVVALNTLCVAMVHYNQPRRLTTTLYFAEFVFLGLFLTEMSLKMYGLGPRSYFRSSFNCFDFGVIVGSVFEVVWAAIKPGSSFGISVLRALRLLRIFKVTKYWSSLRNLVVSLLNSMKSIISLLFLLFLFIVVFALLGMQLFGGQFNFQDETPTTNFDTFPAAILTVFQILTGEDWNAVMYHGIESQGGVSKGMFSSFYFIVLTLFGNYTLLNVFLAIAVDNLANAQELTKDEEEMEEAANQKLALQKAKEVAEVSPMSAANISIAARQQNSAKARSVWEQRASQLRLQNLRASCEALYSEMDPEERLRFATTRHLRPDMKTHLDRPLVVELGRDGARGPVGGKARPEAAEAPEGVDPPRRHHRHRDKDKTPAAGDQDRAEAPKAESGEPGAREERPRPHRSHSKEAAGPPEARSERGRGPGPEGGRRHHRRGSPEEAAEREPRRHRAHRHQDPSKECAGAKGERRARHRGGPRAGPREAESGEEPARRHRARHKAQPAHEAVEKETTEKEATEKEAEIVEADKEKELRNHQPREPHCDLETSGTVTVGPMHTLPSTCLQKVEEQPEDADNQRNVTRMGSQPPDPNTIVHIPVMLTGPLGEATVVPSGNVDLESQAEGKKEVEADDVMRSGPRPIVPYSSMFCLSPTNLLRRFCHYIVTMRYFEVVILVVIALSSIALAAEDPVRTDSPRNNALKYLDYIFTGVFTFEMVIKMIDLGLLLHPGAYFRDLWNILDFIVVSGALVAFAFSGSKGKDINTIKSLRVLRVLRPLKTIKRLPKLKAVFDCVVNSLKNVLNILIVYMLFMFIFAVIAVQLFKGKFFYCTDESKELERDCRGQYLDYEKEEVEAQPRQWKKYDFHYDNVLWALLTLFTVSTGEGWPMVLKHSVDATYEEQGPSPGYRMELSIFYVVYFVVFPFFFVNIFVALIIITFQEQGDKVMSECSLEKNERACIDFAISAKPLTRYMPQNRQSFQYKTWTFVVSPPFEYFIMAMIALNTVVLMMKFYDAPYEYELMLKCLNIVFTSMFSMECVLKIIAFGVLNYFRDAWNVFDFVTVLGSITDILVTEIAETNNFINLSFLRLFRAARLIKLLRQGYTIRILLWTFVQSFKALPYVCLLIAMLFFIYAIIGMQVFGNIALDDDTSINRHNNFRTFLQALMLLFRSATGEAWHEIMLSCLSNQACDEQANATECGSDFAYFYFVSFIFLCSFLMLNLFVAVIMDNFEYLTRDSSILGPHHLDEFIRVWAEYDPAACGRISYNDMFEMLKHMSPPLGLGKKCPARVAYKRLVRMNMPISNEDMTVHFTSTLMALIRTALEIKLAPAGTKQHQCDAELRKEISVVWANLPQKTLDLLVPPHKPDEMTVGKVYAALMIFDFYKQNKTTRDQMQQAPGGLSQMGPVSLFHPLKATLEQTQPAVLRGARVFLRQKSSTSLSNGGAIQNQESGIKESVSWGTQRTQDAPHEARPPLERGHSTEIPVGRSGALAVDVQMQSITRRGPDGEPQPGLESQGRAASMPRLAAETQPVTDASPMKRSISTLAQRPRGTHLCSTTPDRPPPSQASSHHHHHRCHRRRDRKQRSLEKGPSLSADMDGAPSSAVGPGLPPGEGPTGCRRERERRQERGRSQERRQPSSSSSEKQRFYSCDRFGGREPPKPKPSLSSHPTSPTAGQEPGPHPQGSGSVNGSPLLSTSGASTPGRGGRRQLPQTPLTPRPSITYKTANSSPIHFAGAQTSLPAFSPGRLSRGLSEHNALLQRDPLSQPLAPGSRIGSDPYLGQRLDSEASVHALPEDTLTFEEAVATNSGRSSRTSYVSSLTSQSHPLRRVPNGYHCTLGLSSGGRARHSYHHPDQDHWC
T1 sequence (P54289 25-956 partner limits assumed): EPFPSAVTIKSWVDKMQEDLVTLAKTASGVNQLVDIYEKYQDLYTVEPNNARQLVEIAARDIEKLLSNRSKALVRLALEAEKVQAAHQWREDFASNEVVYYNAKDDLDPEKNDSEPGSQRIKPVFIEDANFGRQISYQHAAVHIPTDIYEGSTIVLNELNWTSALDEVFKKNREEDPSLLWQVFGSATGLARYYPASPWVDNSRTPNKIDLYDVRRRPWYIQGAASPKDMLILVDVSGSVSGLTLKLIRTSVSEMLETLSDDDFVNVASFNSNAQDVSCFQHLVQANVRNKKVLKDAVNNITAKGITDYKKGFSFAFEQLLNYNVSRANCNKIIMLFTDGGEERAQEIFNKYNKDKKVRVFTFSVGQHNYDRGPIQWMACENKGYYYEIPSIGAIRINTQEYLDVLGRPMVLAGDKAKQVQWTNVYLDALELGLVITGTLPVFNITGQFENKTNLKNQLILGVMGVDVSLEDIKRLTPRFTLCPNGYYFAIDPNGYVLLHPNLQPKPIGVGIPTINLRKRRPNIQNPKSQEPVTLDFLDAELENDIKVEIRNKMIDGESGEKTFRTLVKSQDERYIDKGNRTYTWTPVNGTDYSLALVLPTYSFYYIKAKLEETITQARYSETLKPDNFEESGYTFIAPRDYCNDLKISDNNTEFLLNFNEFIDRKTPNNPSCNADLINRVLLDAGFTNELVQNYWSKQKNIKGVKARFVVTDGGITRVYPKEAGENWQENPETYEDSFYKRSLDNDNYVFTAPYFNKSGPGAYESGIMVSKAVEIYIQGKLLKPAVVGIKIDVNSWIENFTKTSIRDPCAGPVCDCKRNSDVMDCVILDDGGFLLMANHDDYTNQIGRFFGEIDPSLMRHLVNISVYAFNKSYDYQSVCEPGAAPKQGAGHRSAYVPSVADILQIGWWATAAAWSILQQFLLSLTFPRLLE
T1 sequence (P54289 957-1103 partner limits assumed): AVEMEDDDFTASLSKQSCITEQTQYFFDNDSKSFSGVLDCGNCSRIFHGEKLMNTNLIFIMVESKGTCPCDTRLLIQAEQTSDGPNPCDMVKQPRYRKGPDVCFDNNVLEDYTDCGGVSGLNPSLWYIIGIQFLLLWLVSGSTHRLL
T1 sequence (P54284 whole entry partner): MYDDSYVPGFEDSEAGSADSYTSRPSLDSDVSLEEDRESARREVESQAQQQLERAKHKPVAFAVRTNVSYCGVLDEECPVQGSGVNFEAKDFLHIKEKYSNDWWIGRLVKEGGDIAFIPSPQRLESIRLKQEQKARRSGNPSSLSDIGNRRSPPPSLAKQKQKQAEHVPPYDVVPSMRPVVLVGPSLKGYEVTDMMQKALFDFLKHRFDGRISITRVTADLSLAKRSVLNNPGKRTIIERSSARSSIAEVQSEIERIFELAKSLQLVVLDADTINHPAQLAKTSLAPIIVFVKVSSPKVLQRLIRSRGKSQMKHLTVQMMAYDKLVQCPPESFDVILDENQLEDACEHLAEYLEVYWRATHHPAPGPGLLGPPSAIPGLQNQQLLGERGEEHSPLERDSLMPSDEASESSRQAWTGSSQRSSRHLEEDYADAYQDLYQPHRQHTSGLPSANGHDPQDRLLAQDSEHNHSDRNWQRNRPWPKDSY

For orientation: IC50 means the concentration that gives 50% inhibition. For `CC(C)(C)OC(=O)[C@H](Cc1ccc(OCc2ccccc2)cc1)NC(=O)CNC(=O)N1CCCCCC1` (stereo in doubt) [Example 8, [S-(R*,R*)]-2-{2-[(Azepane-1-carbonyl)-amino]-acetylamino}-3-(4-benzyloxy-phenyl)-propionic acid tert-butyl ester], the “Inhibition of Calcium Flux in IMR-32 Cells % Inhibition at 1 μM” value in series [1] (1 μM) turned out to be 29%. Also, the “Inhibition of Calcium Flux in IMR-32 Cells % Inhibition at 10 μM” value in series [1] (10 μM) is reported as 86%. For the same compound, the values for the IC50 in series [1] and in series [2] were 2400 nM and 180 nM, respectively.
Broadly, the inhibition is the percentage by which the read-out fell short of the control. As for `CC(C)C[C@H](NC(=O)N1CCCCCC1)C(=O)N[C@@H](Cc1ccc(OCc2ccccc2)cc1)C(=O)OC(C)(C)C` [Example 1], in series [1], the inhibition at 1 µM is 71%, the inhibition at 10 µM was determined as 95% and the IC50 was 350 nM. Besides, in series [2], the IC50 is 1720 nM.
For `CC(C)(C)OC(=O)[C@H](Cc1ccc(OCc2ccccc2)cc1)NC(=O)[C@H](Cc1ccccc1)NC(=O)N1CCCCCC1` [Example 16] the same measures were 44%, 92%, 1100 nM and 280 nM.
Take `CC(C)C[C@H](NC(=O)N1CCCCCC1)C(=O)N[C@@H](Cc1ccc(OCc2ccccc2)cc1)C(N)=O` [Example 21, [S-(R*,R*)]-Azepane-1-carboxylic acid {1-[2-(4-benzyloxy-phenyl)-1-carbamoyl-ethylcarbamoyl]-3-methyl-butyl}-amide]: in series [1], the inhibition at 1 µM amounted to 26%, the inhibition at 10 µM stood at 83% and the IC50 was found to be 2700 nM. Further, the IC50 in series [2] was found to be 1600 nM.
With `CC(C)C[C@H](NC(=O)N1CCCCCC1)C(=O)N[C@@H](Cc1ccc(OCc2ccccn2)cc1)C(=O)OC(C)(C)C` [Example 25, [S-(R*,R*)]-2-{2-[(Azepane-1-carbonyl)-amino]-4-methyl-pentanoylamino}-3-[4-(pyridin-2-ylmethoxy)-phenyl]-propionic acid tert-butyl ester], in series [1], the inhibition at 1 µM is 32%, the inhibition at 10 µM was found to be 82% and the IC50 was 2090 nM. For the same compound, in series [2], the IC50 worked out at 1700 nM.
For the compound `CC(C)C[C@H](NC(=O)N1CCCCCC1)C(=O)N[C@@H](Cc1ccc(OCc2ccncc2)cc1)C(=O)OC(C)(C)C` [Example 26, [S-(R*,R*)]-2-{2-[(Azepane-1-carbonyl)-amino]-4-methyl-pentanoylamino}-3-[4-(pyridin-4-ylmethoxy)-phenyl]-propionic acid tert-butyl ester], in series [1], the inhibition at 1 µM turned out to be 44%, the inhibition at 10 µM came to 84% and the IC50 amounted to 1600 nM. For the same compound, in series [2], the IC50 was 3000 nM.
Usually melting point stands for the temperature, or range, at which the solid turns liquid. Regarding `CC(C)C[C@H](NC(=O)N1CCCCCC1)C(=O)N[C@@H](Cc1ccc(C#CC2(O)CCCCC2)cc1)C(=O)NC(C)(C)C` [Example 138, [S-(R*,R*)]-Azepane-1-carboxylic acid (1-({-tert-butylcarbamoyl-2-[4-(1-hydroxy-cyclohexylethynyl)-phenyl]-ethylcarbamoyl}-3-methyl-butyl)-amide], the melting point fell in the range of 120 to 122 °C. Besides, in series [1], the inhibition at 1 µM came to 23% and the inhibition at 10 µM was 67%. For the same compound, in series [2], the IC50 was 1600 nM.
`CC(C)C[C@H](NC(=O)N1CCCCCC1)C(=O)N[C@@H](Cc1ccc(C=Cc2ccccc2)cc1)C(=O)NC(C)(C)C` [Example 141, [S-(R*,R*)]-Azepane-1-carboxylic acid {1-[1-tert-butylcarbamoyl-2-(4-styryl-phenyl)-ethylcarbamoyl]-3-methyl-butyl}-amide] returned a melting point of 95 to 96 °C. In series [1], the inhibition at 1 µM was found to be 37% and the inhibition at 10 µM came out at 66%. In addition, the IC50 in series [2] stood at 410 nM.
Regarding `CC(C)C[C@H](NC(=O)N1CCCCCC1)C(=O)N[C@@H](Cc1ccc(OCc2ccccc2)cc1)C(=O)NCCCn1ccnc1` [Example 237, [S-(R*,R*)]-Azepane-1-carboxylic acid {(1-[2-(4-benzyloxy phenyl)-1-(3-imidazol-1-yl-propylcarbamoyl)-ethylcarbamoyl]-3-methyl-butyl}-amide], in series [1], the inhibition at 1 µM amounted to 52%, the inhibition at 10 µM was found to be 93% and the IC50 was found to be 960 nM. Besides, the concentration for half-maximal inhibition (IC50) in series [2] turned out to be 2200 nM.
